From publication PMC3684443 (ACS chemical biology, 2012)

Tests used:
[1] = tested on: HNSCC cell line 1483 xenograft tumors; experiment: Antitumor effect in HNSCC xenograft model, tumor volume; type: in vivo, Athymic nude mice; settings: 2 weeks treatment, comparison between the three treated groups
HNSCC = settings: cited from earlier work

In the case of `C#Cc1cccc(Nc2ncnc3cc(OCCOC)c(OCCOC)cc23)c1` [erlotinib], the “Response among erlotinib, cetuximab and EGFRAS-GPNA groups” value [1] is given as “no significant difference”, the Clinical response rate (HNSCC; HNSCC and NSCLC patients) is given as 4% and the Disease stabilization (HNSCC; phase II trial, for 16 weeks) is given as 38%. The Response rate (HNSCC; phase II trial) was 4%.
